Laboratory results taken from US20240085429A1, “ALTERING PROTEIN FUNCTION BY PHARMACOLOGICAL TARGETING OF MEMBRANE DOMAINS” (University of Virginia Patent Foundation, priority 2021, published 2024).
Structures can show the parent of a compound that is named as a salt.

How the values were obtained:
Parameters in all cases: species or system human
GPMVs from HeLa cells = experiment: Assay robustness, SSMD* based on % phase separated GPMVs; details: for SSMD* based on percentage of phase separated GPMVs: 10 mM (so in the source) vs DMSO, mean±SD, n=3; for SSMD* effect size class: classification per Zhang, 2011
Procedure: GPMVs were prepared as described above and incubated for 2 hours at RT. They were then seeded into a flat bottom, black-walled 96-well plates (Greiner Bio-One, Kremsmunster, Austria) coated with 0.1% bovine serum albumin and pre-loaded in a checkerboard pattern with DMSO, 10 mM TLCK, or 10 mM C6 ceramide (FIG. 12A). GPMVs were imaged using the ImageXpress Micro XL automated imager using a Nikon 40× super plan fluor ELWD objective and analyzed using the software described above to determine the percentage of phase separated vesicles in each well (FIG. 12B). An estimate for robust strictly standardized mean difference (SSMD*) (Zhang, X. D., Genomics 2007, 89 (4), 552-611; Zhang, X. D., et al., J Biomol Screen 2011, 16 (7), 775-85) was then calculated based on the percentage of phase separated vesicles per well as reported in the NBD-DSPE channel according to the following equation: […]
Here, XP and XN represent the medians of the percentage of phase separated vesicles for the positive controls (C6 ceramide or TLCK) and negative control (DMSO), respectively, whereas śP and śN correspond to the absolute deviations from the median for the positive and negative controls. Three independent GPMV preparations were analyzed on separate days to evaluate reproducibility (FIG. 12C).

[1] = tested on: GPMVs generated from HeLa cells; experiment: Tmisc measurements (temperature scan of % phase separated GPMVs); details: 1 μM C6 ceramide or 10 μM TLCK, 2 independent experiments
Procedure: GPMVs were generated from HeLa cells and either labelled with NBD-DSPE and DiI as described above (TLCK experiments) or labelled with DiI-C12 (C6-cermide experiments). They were then treated with 1 μM C6 ceramide (Sigma Aldrich) or 10 μM TLCK (Cayman) for 1-2 h, mounted in a chamber formed from two coverslips separated by a silicon spacer in the continued presence of drug or an equivalent volume of DMSO (final concentration=0.1 mol %), and allowed to settle for 1 h prior to being imaged.
Tmisc measurements for GPMVs treated with C6-ceramide were performed using a Zeiss LSM 510 confocal microscope. […] DiI-C12 fluorescence was excited using the 543 nm line of a HeNe laser and images were collected at 1× digital zoom. […] For these datasets, the number of phase separated GPMVs was scored manually. […]
Tmisc measurements for GPMVs treated with TLCK were performed using a Zeiss A880 confocal microscope. […] NBD-DSPE fluorescence was excited using a 458 Argon laser line and detected using a 458/548 dichroic and 482-614 nm band pass filter. DiD fluorescence was excited using a 633 nm HeNe laser and emission was collected using a 633/698.5 dichroic and a 638-759 nm band pass filter. […] For these datasets, the percentages of phase separated GPMVs were scored using the “colocalization” method using the MATLAB algorithm described above. […]

[2] = tested on: GPMVs isolated from HeLa cells; experiment: High-throughput screen of the Cayman bioactive lipid library for effects on GPMV phase behavior (% phase separated vesicles, NBD-DSPE phase preference); details: for Effect on % phase separated vesicles: final drug concentration 1 μM, NBD-DSPE channel; for % phase separated z-score / Pordered z-score: Table 4; for Pordered z-score: NBD-DSPE
Procedure: This approach is not practical for high throughput screening applications, which typically are performed at a single temperature. Changes in the percentage of phase-separated GPMVs were monitored at a single temperature in response to the addition of small molecules as a surrogate for measuring Tmisc directly (FIG. 1A). This approach requires that a significant fraction of GPMVs are phase separated under control conditions, such that experimentally-induced changes can be readily detected.
In phase separated vesicles these markers are enriched in their preferred domains, such that a given vesicle contains a co-existing NBD-DSPE-rich phase and a DiD-rich phase. In contrast, NBD-DSPE and DiD colocalize in a single uniform phase in GPMVs that are not phase separated. We also optimized conditions to isolate and plate GPMVs in multi-well plates.
To provide proof-of-concept, the Cayman lipid library containing ˜850 bioactive lipid-like compounds in the Vanderbilt High-throughput Screening Facility was screened, using […] of each compound across three independent screens. All screens were carried out using an automated microscope/high-content imaging system and robotic plate handler at RT. […] Compounds were initially scored based on their capacity to alter the percentage of phase separated vesicles (FIG. 2A).
HeLa cells were obtained from ATCC (cat #CCL-2) and cultured at 37° C. in 5% CO2 in a humidified tissue culture incubator. […] In brief, cells were plated in 150 mm tissue culture dishes the day before the experiment, to yield a confluence of 70-80% the day of the experiment. To generate GPMVs, cells were rinsed twice in 10 ml of GPMV buffer (2 mM DTT, 25 mM formaldehyde, 150 mM NaCl, 10 mM HEPES, 2 mM CaCl2), pH=7.4) and subsequently incubated in 12 ml of GPMV buffer at 37° C. with gentle shaking at 70 rpm for 1.5 h. The raft marker NBD-DSPE (1,2-distearoyl-sn-glycero-3-phosphoethanolamine-N-(7-nitro-2-1,3-benzoxadiazol-4-yl; Avanti Polar Lipids) and the non-raft marker DiD (1,1′-dioctadecyl-3,3,3′,3′-tetramethylindodicarbocyanine perchlorate; cat #D307 Thermo Scientific) were added from stock solutions in ethanol to the GPMV suspension at final concentrations of 5-6 μg/ml and 1 μg/ml, respectively, for the initial screenings. For some experiments, cells were prelabelled with 5 μg/ml DiD for 8 min at 4° C. and washed several times prior to GPMVs generation. Screening was performed the same day that GPMVs were generated.
[…] GPMVs suspension in GPMV buffer was then added to each well of a 96-well plate to obtain a final drug concentration of 1 μM. The GPMVs were allowed to settle to the bottom of the plates for 1.5 h prior to imaging. Samples were prepared and imaged at RT. The screen was repeated on three different days using three separately prepared batches of GPMVs (3 biological replicates).
Image acquisition was performed with an ImageXpress Micro XL automated microscope (Molecular Devices) using a Nikon 40X 0.6 NA Super Plan Fluor ELWD objective and a Lumencor Sola solid-state light source. Laser autofocus was employed at each site to obtain the best focus z-plane for each channel. […] Sixteen sites were captured per well using a 4.2 MP widefield scientific cMOS camera with a camera binning of 1. Each plate took approximately 1.3 h to image. Multiple plates were loaded to a plate carousel (ThermoScientific), shuttled to/from the ImageXpress via a ThermoScientific CRS F3 robot arm, and automatically run through the Momentum scheduling software (Thermo). To analyze the data, images and metadata were exported as TIFF files and subjected to image analysis using a custom MATLAB-based program as described below.

| SMILES | SSMD* based on percentage of phase separated GPMVs (GPMVs from HeLa cells) | SSMD* effect size class (GPMVs from HeLa cells) | change in Tmisc relative to DMSO [1] | Effect on % phase separated vesicles ([2]; HeLa GPMVs, RT) | % phase separated z-score ([2]; HeLa GPMVs, final 1 μM, RT) | Pordered z-score ([2]; HeLa GPMVs, final 1 μM, RT) | Effect on Pang(ϕ) ([2]; NBD-DSPE raft phase preference, HeLa GPMVs, final 1 μM, RT) | raft modulation in the GPMV model ([2]; screen result in words) |
| --- | --- | --- | --- | --- | --- | --- | --- | --- |
| CCCCCCCCCCCCC/C=C/[C@@H](O)[C@H](CO)NC(=O)CCCCC [C6 Ceramide (d18:1/6:0)] | 8.84±2.65 | extremely strong | lowered Tmisc | ↓ | −3.01 | 0.76 |  |  |
| Cc1ccc(S(=O)(=O)N[C@@H](CCCCN)C(=O)CCl)cc1 [TLCK hydrochloride, Nα-Tosyl-Lys Chloromethyl Ketone] | 1.34±0.29 | moderate | increased Tmisc | ↑ | 6.73 | 5.69 | ↑ | potent raft stabilizer |
